The target in assay [1] is T1, BACE1 (Homo sapiens (Human), UniProt P56817). The assay is described as follows: In vitro enzymatic BACE1 FRET assay. In kind it is biochemical. As to conditions: pH 4.5, 1 h pre-incubation, read-out: BACE1 Enzyme IC50. The procedure: (§1) In Vitro Enzymatic BACE1 and BACE2 FRET (Fluorescence Resonance Energy Transfer) Assays
(§2) The cDNAs for both human recombinant BACE1 and 2 with C-terminal 6-His Tags were cloned into transient protein expression vectors, which were subsequently transfected into mammalian cell lines. These recombinant proteins were further purified using Ni-NTA affinity chromatography (Qiagen). The assay buffer used in these screens was 0.05 M acetate, pH 4.5, 8% DMSO final, 100 μM genapol (which is a nonionic detergent, below its Critical Micelle Concentration). The β-secretase enzyme (0.02 nM for BACE1 and 0.64 nM for BACE2), which was pre-incubated for one hour with the test compound, typically in about luL of DMSO according to a serial dilution, was added thereto. The assay was effectively started by the addition of FRET substrate (50 nM) and the combination was incubated for one hour. The FRET assay was terminated by the addition of tris buffer, which raised the pH to neutrality, and the fluorescence was determined. The FRET substrate was a peptide with commercially available fluorophore and quencher, on opposite sides of the BACE cleavage site. The specific FRET substrate used in this assay was made by Amgen in-house. Commercially available FRET substrates, for example, the FRET substrate offered with the BACE1 FRET Assay Kit sold by ThermoFisher Scientific (Catalog Number P2985), may be used in this assay with the appropriate modifications, which are within the purview of the ability of a person with ordinary skill in the art. Proteolytic cleavage of the FRET substrate released quenching of fluorescence (excitation 488 nm and emission 590 nm).
Target sequence in this assay (P56817 46-501): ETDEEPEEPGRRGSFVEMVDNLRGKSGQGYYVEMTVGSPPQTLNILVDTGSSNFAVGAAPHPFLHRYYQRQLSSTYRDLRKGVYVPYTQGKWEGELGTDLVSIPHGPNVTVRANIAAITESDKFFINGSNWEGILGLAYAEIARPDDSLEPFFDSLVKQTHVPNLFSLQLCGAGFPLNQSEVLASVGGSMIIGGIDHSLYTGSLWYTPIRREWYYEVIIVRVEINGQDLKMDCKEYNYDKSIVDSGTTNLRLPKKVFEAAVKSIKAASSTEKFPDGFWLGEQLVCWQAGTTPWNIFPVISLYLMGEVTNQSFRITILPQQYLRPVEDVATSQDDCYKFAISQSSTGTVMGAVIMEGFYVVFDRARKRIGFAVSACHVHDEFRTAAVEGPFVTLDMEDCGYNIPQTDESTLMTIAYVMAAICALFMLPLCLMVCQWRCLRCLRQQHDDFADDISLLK

Another assay has as its target Recombinant CatD (Homo sapiens (Human), UniProt P07339). The assay is described as follows: In vitro enzymatic Cathepsin D (CatD) FRET assay. In kind it is biochemical. As to conditions: pH 3.5, 1 h pre-incubation, read-out: Cat D Enzyme IC50. The procedure:
In Vitro Enzymatic Cathepsin D (CatD) FRET Assay Recombinant CatD was expressed in CHO cells. The assay buffer for CatD was 0.05 M citrate pH 3.5, 10% DMSO final, 5 mM CHAPS. The CatD enzyme (9 nM) was pre-incubated for one hour with inhibitors, typically in about luL of DMSO according to a serial dilution, is added thereto. The assays was effectively started by the addition of different FRET substrates (20 nM for CatD) and the combination was incubated for one hour. The FRET assay was terminated with by addition of tris buffer, which raises the pH to neutrality, and the fluorescence was determined. The FRET substrate was a peptide with commercially available fluorophore and quencher, on opposite sides of the CatD cleavage site. The CatD substrate peptide sequence was based on sequence #1 of Table 1 from Gulnik et al., FEBS Lett. 413(2):379-384 (1997). Proteolytic cleavage of the FRET substrate released quenching of fluorescence (CatD excitation 500 nm and emission 580 nm). The in vitro CatD FRET assay data for each of the Examples is provided in Table 2, conducted by the first procedure described above. […] Thus, with this surprising selectivity profile, the compounds provided herein are believed to minimize, reduce or completely eliminate any risk of retinal atrophy and abnormal development of the eye and of the retinal pigmented epithelium as it relates to the normal function and activity of CatD.

In the next assay the target is human recombinant BACE2 (Homo sapiens (Human), UniProt Q9Y5Z0). The experiment in a line: In vitro enzymatic BACE2 FRET assay. It is filed as biochemical. As to conditions: pH 4.5, 1 h pre-incubation, read-out: BACE2 Enzyme IC50. The procedure: as §1, §2
Sequence of human recombinant BACE2 (Q9Y5Z0 63-518): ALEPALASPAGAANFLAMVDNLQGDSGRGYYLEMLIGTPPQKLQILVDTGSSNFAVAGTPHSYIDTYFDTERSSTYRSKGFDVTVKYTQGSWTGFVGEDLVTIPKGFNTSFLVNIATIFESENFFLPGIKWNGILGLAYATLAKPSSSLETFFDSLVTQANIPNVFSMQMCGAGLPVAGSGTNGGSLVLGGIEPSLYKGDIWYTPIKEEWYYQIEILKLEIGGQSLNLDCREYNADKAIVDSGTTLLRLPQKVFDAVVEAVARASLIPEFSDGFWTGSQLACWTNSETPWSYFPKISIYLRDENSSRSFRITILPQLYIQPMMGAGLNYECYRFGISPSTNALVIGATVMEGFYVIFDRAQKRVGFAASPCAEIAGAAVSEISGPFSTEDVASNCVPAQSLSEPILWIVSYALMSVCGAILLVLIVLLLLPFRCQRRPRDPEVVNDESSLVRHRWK
Assay [2] concerns the target T1, BACE1. The experiment in a line: In vitro BACE1 cell-based assay (Aβ40 in conditioned medium, HTRF). As to conditions: Aβ40 in conditioned medium of cells stably expressing APP, 24 h. On the procedure: In Vitro BACE1 Cell-Based Assay
The cell-based assay measures inhibition or reduction of Aβ40 in conditioned medium of test compound treated cells expressing amyloid precursor protein. Cells stably expressing Amyloid Precursor Protein (APP) were plated at a density of 45K cells/well in 384 well plates (Corning/BioCoat 354663). The test compounds were then added to cells in 22-point dose response concentrations with the starting concentration being 62.5 μM. The compounds were diluted from stock solutions in DMSO and the final DMSO concentration of the test compounds on cells was 0.625%. The cells were cultivated overnight at 37° C. and 5% CO2 in DMEM supplemented with 10% FBS. After 24 h of incubation with the test compounds, the conditioned media was collected and the Aβ40 levels were determined using HTRF (Homogeneous Time Resolved Fluorescence). The IC50 of the compound was calculated from the percent of control or percent inhibition of Aβ 40 as a function of the concentration of the test compound.
The HTRF to detect Aβ40 was performed in 384 well plates (Costar 3658). The antibody pair that were used to detect Aβ 40 from cell supernatants were ConfAb40 antibody (Amgen in-house) and biotinylated 6E10 (BIOLEGEND). As an alternative to ConfAb40, a commercially available antibody, Anti-beta Amyloid 1-40 antibody [BDI350] from Abcam, Cambridge, Mass. 02139-1517 (Product code: ab20068), may be used in this assay. The concentrations were 0.35 μg/mL of ConfAb40 antibody and 1.33 μg/mL of 6E10-biotinylated antibody, as well as 4.5 μg/mL of Streptavidin Allophycocyanin Conjugate (ThermoFisher Scientific) in HTRF Buffer (1M Hepes pH 7.5, 1M NaCL, 1% BSA, 0.5% Tween 20).
The conditioned media was incubated with above antibodies and Streptavidin Allophycocyanin Conjugate for 30-60 minutes at 23° C. The final readout was performed on Envision from PerkinElmer.
Target sequence in this assay (P56817 46-501, species assumed): as the sequence (P56817 46-501) above
For orientation: TR-FRET usually uses a lanthanide donor and a delayed reading to cut background.

Sequence of Recombinant CatD (P07339 65-412): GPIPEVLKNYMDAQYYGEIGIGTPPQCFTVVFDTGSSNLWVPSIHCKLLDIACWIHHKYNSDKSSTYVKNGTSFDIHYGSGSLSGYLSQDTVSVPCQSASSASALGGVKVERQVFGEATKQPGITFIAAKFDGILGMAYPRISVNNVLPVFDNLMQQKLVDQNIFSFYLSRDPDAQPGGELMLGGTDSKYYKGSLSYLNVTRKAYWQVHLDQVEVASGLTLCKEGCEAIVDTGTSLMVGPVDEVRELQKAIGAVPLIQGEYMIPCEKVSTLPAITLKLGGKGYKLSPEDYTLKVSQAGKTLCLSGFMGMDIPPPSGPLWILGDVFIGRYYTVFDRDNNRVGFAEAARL

A word on the IC50: it is the concentration that inhibits the measured activity by half. As for `COC(=O)[C@H]1C[C@@](C)(c2cc(/C=C(\F)c3ccc(Cl)cn3)ccc2F)N=C(N)S1` (single isomer, unassigned) [Example 104], the IC50 at BACE1 [1] came out at 212 nM; at Recombinant CatD, 133000 nM; at human recombinant BACE2, 185 nM; against BACE1 [2], 468 nM.

For `COC(=O)[C@@H]1C[C@@](C)(c2cc(/C=C(\F)c3ccc(Cl)cn3)ccc2F)N=C(N)S1` (single isomer, unassigned) [Example 105], the IC50 at BACE1 [1] was 45 nM; at Recombinant CatD, 73700 nM; at human recombinant BACE2, 49 nM; at BACE1 [2] it was 377 nM.

With `C[C@@]1(c2cc(/C=C(\F)c3ccc(Cl)cn3)ccc2F)C=CSC(N)=N1` [Example 100, (S,Z)-4-(5-(2-(5-chloropyridin-2-yl)-2-fluorovinyl)-2-fluorophenyl)-4-methyl-4H-1,3-thiazin-2-amine], the half-maximal inhibitory concentration (IC50) worked out at 220 nM at BACE1 [1], 36900 nM on Recombinant CatD, 191 nM at human recombinant BACE2 and 357 nM on BACE1 [2].

For `C[C@@]1(c2cc(/C=C(\F)c3ccc(C#N)cn3)ccc2F)C=CSC(N)=N1` [Example 101, (S,Z)-6-(2-(3-(2-amino-4-methyl-4H-1,3-thiazin-4-yl)-4-fluorophenyl)-1-fluorovinyl)nicotinonitrile], the IC50 on BACE1 [1] was determined as 98 nM; on Recombinant CatD, 52000 nM; at human recombinant BACE2, 601 nM; against BACE1 [2] it was 49 nM.

As for `C[C@@]1(c2cc(/C=C(\F)c3ccc(Cl)cn3)ccc2F)CCSC(N)=N1` [Example 102, (S,Z)-4-(5-(2-(5-chloropyridin-2-yl)-2-fluorovinyl)-2-fluorophenyl)-4-methyl-5,6-dihydro-4H-1,3-thiazin-2-amine], the IC50 came out at 124 nM on BACE1 [1], 211000 nM at Recombinant CatD, 64 nM on human recombinant BACE2 and 148 nM at BACE1 [2].

For `C[C@@]1(c2cc(/C=C(\F)c3ccc(C#N)cn3)ccc2F)CCSC(N)=N1` [Example 103, (S,Z)-6-(2-(3-(2-amino-4-methyl-5,6-dihydro-4H-1,3-thiazin-4-yl)-4-fluorophenyl)-1-fluorovinyl)nicotinonitrile], the IC50 came to 74 nM on BACE1 [1], 186000 nM at Recombinant CatD, 482 nM on human recombinant BACE2 and 15 nM against BACE1 [2].

Regarding `COC(=O)[C@]1(C)C[C@@](C)(c2cc(/C=C(\F)c3ccc(Cl)cn3)ccc2F)N=C(N)S1` [Example 106, (4S,6S)-methyl 2-amino-4-(5-((Z)-2-(5-chloropyridin-2-yl)-2-fluorovinyl)-2-fluorophenyl)-4,6-dimethyl-5,6-dihydro-4H-1,3-thiazine-6-carboxylate], the 50% inhibitory concentration (IC50) came to 54 nM at BACE1 [1], 91000 nM on Recombinant CatD, 75 nM at human recombinant BACE2 and 215 nM at BACE1 [2].

For `COC(=O)[C@@]1(C)C[C@@](C)(c2cc(/C=C(\F)c3ccc(Cl)cn3)ccc2F)N=C(N)S1` [Example 107, (4S,6R)-methyl 2-amino-4-(5-((Z)-2-(5-chloropyridin-2-yl)-2-fluorovinyl)-2-fluorophenyl)-4,6-dimethyl-5,6-dihydro-4H-1,3-thiazine-6-carboxylate], the IC50 at BACE1 [1] stood at 68 nM; on Recombinant CatD, 282000 nM; on human recombinant BACE2, 90 nM; at BACE1 [2], 522 nM.

Take `COC(=O)[C@@]1(C)C[C@@](C)(c2cc(/C=C(\F)c3ccc(C#N)cn3)ccc2F)N=C(N)S1` [Example 108, (4S,6R)-methyl 2-amino-4-(5-((Z)-2-(5-cyanopyridin-2-yl)-2-fluorovinyl)-2-fluorophenyl)-4,6-dimethyl-5,6-dihydro-4H-1,3-thiazine-6-carboxylate]: the IC50 on BACE1 [1] is 16 nM; on Recombinant CatD, 386000 nM; at human recombinant BACE2, 231 nM; at BACE1 [2] it was 44 nM.

As to `COC(=O)[C@]1(C)C[C@@](C)(c2cc(/C=C(\F)c3ccc(C#N)cn3)ccc2F)N=C(N)S1` [Example 109, (4S,6S)-methyl 2-amino-4-(5-((Z)-2-(5-cyanopyridin-2-yl)-2-fluorovinyl)-2-fluorophenyl)-4,6-dimethyl-5,6-dihydro-4H-1,3-thiazine-6-carboxylate], the half-inhibitory concentration (IC50) at BACE1 [1] was 16 nM; at Recombinant CatD, 95600 nM; at human recombinant BACE2 it was 281 nM; at BACE1 [2], 24 nM.

Regarding `C[C@@]1(C(=O)N2CCOCC2)C[C@@](C)(c2cc(/C=C(\F)c3ccc(C#N)cn3)ccc2F)N=C(N)S1` [Example 110, 6-((Z)-2-(3-((4S,6S)-2-amino-4,6-dimethyl-6-(morpholine-4-carbonyl)-5,6-dihydro-4H-1,3-thiazin-4-yl)-4-fluorophenyl)-1-fluorovinyl)nicotinonitrile], the IC50 was found to be 4 nM at BACE1 [1], 250000 nM on Recombinant CatD, 130 nM at human recombinant BACE2 and 2 nM at BACE1 [2].

Regarding `C[C@]1(C(=O)N2CCOCC2)C[C@@](C)(c2cc(/C=C(\F)c3ccc(C#N)cn3)ccc2F)N=C(N)S1` [Example 111, 6-((Z)-2-(3-((4S,6R)-2-amino-4,6-dimethyl-6-(morpholine-4-carbonyl)-5,6-dihydro-4H-1,3-thiazin-4-yl)-4-fluorophenyl)-1-fluorovinyl)nicotinonitrile], the IC50 at BACE1 [1] was 98 nM; on Recombinant CatD, 300000 nM; at human recombinant BACE2, 1470 nM; on BACE1 [2] it was 201 nM.

For `C#CCOc1cnc(/C(F)=C/c2ccc(F)c([C@]3(C)C[C@](C)(C(=O)NC)SC(N)=N3)c2)cn1` [Example 112, (4S,6R)-2-amino-4-(2-fluoro-5-((Z)-2-fluoro-2-(5-(2-propyn-1-yloxy)-2-pyrazinyl)ethenyl)phenyl)-N,4,6-trimethyl-5,6-dihydro-4H-1,3-thiazine-6-carboxamide], the 50% inhibitory concentration (IC50) at BACE1 [1] was 37 nM; at Recombinant CatD it was 79900 nM; at human recombinant BACE2, 1300 nM; on BACE1 [2], 11 nM.

For the compound `C#CCOc1cnc(/C(F)=C/c2ccc(F)c([C@]3(C)C[C@@](C)(C(=O)NC)SC(N)=N3)c2)cn1` [Example 113, (4S,6S)-2-amino-4-(2-fluoro-5-((Z)-2-fluoro-2-(5-(2-propyn-1-yloxy)-2-pyrazinyl)ethenyl)phenyl)-N,4,6-trimethyl-5,6-dihydro-4H-1,3-thiazine-6-carboxamide], the concentration for half-maximal inhibition (IC50) at BACE1 [1] was 22 nM; at Recombinant CatD it was 178000 nM; on human recombinant BACE2, 835 nM; against BACE1 [2], 10 nM.

For the origin of these results see US10889579B2, “Thiazine derivatives as β-secretase inhibitors and methods of use” (AMGEN INC., priority 2016, dated 2021).
